Measured values published in patent publication US20060019971A1, “Treatment of cardiovascular disease with inhibitors of p38 kinase” (priority 2003, published 2006).

Experiments:
IL-8 mRNA in HPBMCs = assay: IL-8 gene expression in HPBMCs, real-time PCR; type: cell-based, human; details: 1 μM SD
Protocol: 8×10^5 HPBMCs were plated in 96-well. After 1 hour medium was removed and cells were incubated with or without 10 μg/ml of purified human CRP in serum-free RPMI 1640. In parallel experiments cells were treated with 10% FCS together with the CRP treatment. For the p38 antagonism, p38 inhibitor was added to a final concentration of 1 μM in the parallel treatment. After 6 hours conditioned medium were collected and IL-6 and IL-8 levels were determined by ELISA. […] 5×10^6 HPBMCs were plated in 6-well. After 1 hour medium was removed and cells were treated with vehicle or 1 μM p38 inhibitor in RPMI 1640 medium. After 1 hour cells were stimulated with 10% FCS only or 10 μg/ml CRP plus 10% FCS. After 2 hours RNA was extracted from the cells and IL-8 expression level was determined by real-time PCR as described in the Experimental section.
Cryopreserved human peripheral blood monocytes (HPBMCs, from Biowitker, Walkersvill, Md.) were thawed and washed twice in RPMI 1640. Cells were plated in tissue culture plates and incubated in 5% CO2 at 37 C. After 1 hr media were removed and cells were treated with various treatments. […]
RNA was extracted from the cells using Qiagen RNA extraction kit according to the manufacturer's instruction. The expression of pro-inflammatory genes IL-1β, IL-6, IL-8, TNFα, COX-2, ET-1, TF were assessed by real-time PCR. […]

[1] = tested on: IL-6 secretion from HPBMCs; assay: IL-6 secretion from HPBMCs, ELISA; type: cell-based, human
Protocol: FIG. 2(a) illustrates both the effect of CRP on IL-6 secretion from HPBMCs and its modulation by a p38 inhibitor. 8×10^5 HPBMCs were plated in 96-well. After 1 hour medium was removed and cells were incubated with or without 10 μg/ml of purified human CRP in serum-free RPMI 1640. In parallel experiments cells were treated with 10% FCS together with the CRP treatment. For the p38 antagonism, the p38 inhibitor was added to a final concentration of 1 μM in the parallel treatment. After 6 hours the conditioned medium was collected and IL-6 and IL-8 levels were determined by ELISA. FIG. 2(b) illustrates the effects of p38 inhibitor concentration on CRP induced IL-6 secretion from HPBMCs. 3×10^5 HPBMCs were plated in 96-well. After 1 hour medium was removed and cells were incubated with 10 μg/ml of purified human CRP plus 10% FCS in the presence of varying concentrations of p38 inhibitor. After 4 hours conditioned medium were collected and IL-6 level was determined by ELISA. FIG. 2(c) illustrates both the effect of CRP on IL-6 gene expressions in HPBMCs and its modulation by p38 inhibitor. 5×10^6 HPBMCs were plated in 6-well. After 1 hour medium was removed and cells were treated with vehicle or 1 μM p38 inhibitor in RPMI 1640 medium. After 1 hour cells were stimulated with 10% FCS only or 10 μg/ml CRP plus 10% FCS. After 6 hours RNA was extracted from the cells and IL-6 expression level was determined by real-time PCR as described in Experimental section.
Cryopreserved human peripheral blood monocytes (HPBMCs, from Biowitker, Walkersvill, Md.) were thawed and washed twice in RPMI 1640. Cells were plated in tissue culture plates and incubated in 5% CO2 at 37 C. After 1 hr media were removed and cells were treated with various treatments. After 2 to 20 hours conditioned media and/or cell lysates were collected for the analyses of secreted cytokines, protein or mRNA expression. 10 μg/ml of purified human CRP (Calbiochem, San Diego, Calif.) was used in most of the treatments. In some experiments fetal calf serum (FCS from ATCC) was added to a final concentration of 10% together with CRP. In the examples provided herein, including those assessing the effects of p38 antagonism, cells were pre-treated with SD, a p38 small molecule inhibitor (Compound 162 in Table A) for 1 hour prior to CRP treatment as described above. In a parallel series of experiments, the effect of vehicle (DMSO) was tested. For TaqMan analyses of various gene expression cells were lysed in ice-cold RLT lysis buffer (Qiagen, Valencia, Calif.) and the lysates were kept in −80° C. until the analyses. For Western analyses cells were lysed in RIPA buffer (50 mM Tris-HCl, pH 7.5, 150 mM NaCl, 1 mM EDTA, 1% NP-40) containing phosphatase inhibitor cocktails and protease inhibitor cocktail (Promega, Madison, Wis.).
Conditioned media from the treated cells were collected (6 to 20 hrs), and the level of secreted interleukin 6 (IL-6), interleukin 1 beta (IL-1 β), tumor necrosis factor alpha (TNFα), and interleukin 8 (IL-8) was determined by ELISA according to the manufacturer's instruction (Biosource International, Camarillo, Calif.). All determinations were performed in duplicates.
As part of the studies described herein, an investigation was done as to whether the CRP invoked IL-6 secretion from HPBMCs is dependent on p38 MAP kinase signaling. […] The effect of addition of 10% fetal calf serum (FCS) during the CRP treatment on IL-6 secretion was also assessed. […]

`C[C@@H]1CN(Cc2ccc(F)cc2)[C@@H](C)CN1C(=O)c1cc2c(C(=O)C(=O)N(C)C)c[nH]c2cc1Cl` [Compound 162] was tested, and the “inhibition of FCS invoked IL-8 expression” value (IL-8 mRNA in HPBMCs) was “almost completely inhibited”, the “inhibition of CRP increased IL-8 mRNA level” value (IL-8 mRNA in HPBMCs; at 6 hours) was “almost completely inhibited” and the “inhibition of CRP-induced IL-6 secretion” value ([1]; 1 μM SD, 10 μg/ml CRP, no FCS, 6 hours) was “almost completely attenuated”. The “inhibition of IL-6 secretion induced by CRP plus 10% FCS” value ([1]; 1 μM SD, 6 hours) was “dramatically inhibited”, the “inhibition of basal IL-6 secretion” value ([1]; 1 μM SD, HPBMCs, 6 hours) was “almost completely attenuated” and the “inhibition of IL-6 secretion invoked by CRP in the presence of FCS” value ([1]; 3 μM SD, 4 hours) was “almost completely inhibited”. The IC50 ([1]; Homo sapiens, CRP 10 μg/ml in the presence of 10% FCS, 4 hours, read-out: concentration effective to inhibit 50% of IL-6 secretion) was less than 50 nM.
